Results published in US9834544B2, “Sweet flavor modifier” (SENOMYX, INC., priority 2011, dated 2017).

Experiments:
Type in all cases: in vivo
Human Panelists [1] = test: Sweet flavor enhancement, human panelists, scaling test; conditions: 0 to 15 scale, n = 30
From the text: Test samples containing experimental compounds were compared to a dose-response curve for perceived sweetness intensity of sweeteners (sucralose, sucrose, fructose and other sweeteners) concentrations to determine equivalent sweetness intensity.
A group of eight or more panelists tasted solutions including sweeteners at various concentrations, as well as the experimental compound both with and without added sweetener. Panelists then rated sweetness intensity of all samples on a structured horizontal line scale, anchored from 0 to 15, where 0 equals no sweetness and 15 equals equivalent sweetness to a 15% sucrose sample. Scores for sweetness intensity were averaged across panelists. Then using the average scores and/or equation of the line for the sweetener dose-response curve, equivalent sweetness concentrations were determined for the samples containing experimental compounds.
Subjects had been previously familiarized with the key attribute taste and were trained to use the 0 to 15 point line scale. Subjects refrained from eating or drinking (except water) for at least 1 hour prior to the test. Subjects ate a cracker and rinsed with water several times to clean the mouth.
Sweetener solutions are provided at a wide range of concentrations such as 100 ppm, 200 ppm, 300 ppm, 400 ppm, and 500 ppm for sucralose, or between 0% and 12% for sucrose or fructose, in order to create a dose-response curve. Samples containing experimental compound were prepared both alone and in a 100 ppm sucralose solution or a 6% sucrose or fructose solution. All samples were made up in low sodium buffer pH 7.1. In order to aid dispersion, solutions can be made up in 0.1% ethanol.
The solutions were dispensed in 20 ml volumes into 1 oz. sample cups and served to the subjects at room temperature. All samples were presented in randomized counterbalanced order to reduce response bias. Further, two sessions of testing may be used to check panel precision.
Subjects tasted each sample individually and rate sweetness intensity on the line scale prior to tasting the next sample. All samples were expectorated. Subjects may retaste the samples but can only use the volume of sample given. Subjects must rinse with water between samples. Eating an unsalted cracker between samples may be required depending on the samples tasted.
The scores for each sample were averaged across subjects and standard error was calculated. The dose-response curve was plotted graphically, and this may be used to ensure the panel is rating accurately; i.e., increasing the concentration of sucralose should correspond to increased average scores for sweetness. […]

Human Panelists [2] = test: Paired comparison test with Compound D5 in product prototype (drinks)
Description: (§1) Test samples containing experimental compounds are presented in pairs to the panelist and they are asked to determine which of the sample is sweeter. A group of 10-16 or more panelists participated in each test. Subjects refrained from eating or drinking (except water) for at least 1 hour prior to the test. Subjects rinsed with water several times to clean the mouth.
(§2) In one paired comparison test, the panelist is presented with two different samples and asked to identify the sample which is sweeter. The samples within a paired comparison test are presented in a randomized, counterbalanced order. Panelists have up to a 1 minute delay between taste tests to clear the mouth of any tastes.
(§3) Binomial probability tables are used to determine the probability of the correct number of responses occurring for each test at alpha=0.05
Human panelists evaluated various drinks (e.g., tea, coffee, Kool-Aid) in paired comparison taste test procedure.

Human Panelists [3] = test: Sweet flavor enhancement, human panelists, paired comparison test
Description: as §1
All samples are prepared with ethanol to ensure dispersion of the compound in solution. This includes samples without compound; all solutions are balanced for 0.1% ethanol.
Samples are also prepared with low sodium buffer (pH 7.1) in place of water. Buffer contains 0.952 g of KCl, 5.444 g of Na2HPO4, and 0.952 g of KH2PO4 in 40 L of DIUF water. Sample volumes are usually 20 ml.
as §2, §3

Q: For OC[C@H]1O[C@@](CO)(O[C@H]2O[C@H](CO)[C@@H](O)[C@H](O)[C@H]2O)[C@@H](O)[C@@H]1O [Sucrose], which “Average Sweetness” value (Human Panelists [1]; 6% Sucrose) is on record?
A: 6.6

Q: And the “Average Sweetness” value (Human Panelists [1]; 8% Sucrose)?
A: 8.1

Q: What about the “Average Sweetness” value (Human Panelists [1]; 10% Sucrose) of the same molecule?
A: 9.8

Q: And the “Average Sweetness” value (Human Panelists [1]; 12% Sucrose)?
A: 11.0

Q: What about the “Sample selected as sweeter by panelists, Total” value (from here on “Sample selected as sweeter”) (Human Panelists [2]; 8% Sucrose Brewed Neutral Black Tea vs 4% Sucrose Brewed Neutral Black Tea + 30.6 μM Compound D5, n = 39) of the same molecule?
A: 22

Q: And the “Sample selected as sweeter” value (Human Panelists [2]; 8% Sucrose Coffee Drink vs 4% Sucrose Coffee Drink + 23.65 μM Compound D5, n = 39)?
A: 20

Q: And the “Sample selected as sweeter” value (Human Panelists [2]; 10% Sucrose Cherry Kool-Aid vs 5% Sucrose Cherry Kool-Aid + 41.7 μM Compound D5, n = 33)?
A: 18

Q: What about the “Sample selected as sweeter” value (Human Panelists [2]; 10% Sucrose Lemonade Kool-Aid vs 5% Sucrose Lemonade Kool-Aid + 41.7 μM Compound D5, n = 48) of the same molecule?
A: 27

Q: And the “Sample selected as sweeter” value (Human Panelists [3]; 1% Sucrose vs LSB + 27.8 μM Compound D5, n = 45)?
A: 43

Q: And the “Sample selected as sweeter” value (Human Panelists [3]; 1% Sucrose vs LSB + 27.8 μM Compound Y5, n = 45)?
A: 44

Q: And the “Sample selected as sweeter” value (Human Panelists [3]; 1% Sucrose vs LSB + 111.3 μM Compound D5, n = 29)?
A: 21

Q: And the “Sample selected as sweeter” value (Human Panelists [3]; 10% Sucrose vs 6% Sucrose + 24.9 μM Compound E5, n = 39)?
A: 13

Q: And the “Sample selected as sweeter” value (Human Panelists [3]; 10% Sucrose vs 6% Sucrose + 26.8 μM Compound L6, n = 45)?
A: 14

Q: And the “Sample selected as sweeter” value (Human Panelists [3]; 10% Sucrose vs 6% Sucrose + 26.9 μM Compound A6, n = 45)?
A: 9

Q: What about the “Sample selected as sweeter” value (Human Panelists [3]; 10% Sucrose vs 6% Sucrose + 26.9 μM Compound Q5, n = 48) of the same molecule?
A: 13

Q: What about the “Sample selected as sweeter” value (Human Panelists [3]; 10% Sucrose vs 6% Sucrose + 26.9 μM Compound R5, n = 42) of the same molecule?
A: 16

Q: What about the “Sample selected as sweeter” value (Human Panelists [3]; 10% Sucrose vs 6% Sucrose + 27.8 μM Compound D5, n = 45) of the same molecule?
A: 13

Q: And the “Sample selected as sweeter” value (Human Panelists [3]; 10% Sucrose vs 6% Sucrose + 27.8 μM Compound Y5, n = 11 (11 panelists × 2 reps))?
A: 8

Q: What about the “Sample selected as sweeter” value (Human Panelists [3]; 10% Sucrose vs 6% Sucrose + 27.9 μM Compound K5, n = 45) of the same molecule?
A: 11

Q: And the “Sample selected as sweeter” value (Human Panelists [3]; 10% Sucrose vs 6% Sucrose + 28.9 μM Compound E6, n = 39)?
A: 18
